# From patent publication US20050059645A1, “Methods for the treatment of male and female sexual dysfunction” (priority 2003, published 2005)
# Like-named read-outs stand apart in the source and are kept apart here.
# Experiments:
# castrated male rats = settings: cited from earlier work
# LH = assay: Plasma LH by radioimmunoassay in ovariectomized female rats; assay type: in vivo, rat; settings: 0.003, 0.01 and 0.03 mg/kg i.v. daily for 5 days
# Experimental: (§1) After recovery from surgery, ovariectomized female rats were divided into four groups and treated once a day for five days intravenously, via a bolus injection through the tail vein, as follows: (1) control, 27% HPβCD solution; (2) 0.003 mg/kg E2-CDS dissolved in 27% HPβCD solution; (3) 0.01 mg/kg E2-CDS dissolved in 27% HPβCD solution; and (4) 0.03 mg/kg E2-CDS dissolved in 27% HPβCD solution. A minimal number of ovariectomized (8 to 12) females were used per group. Intravenous treatments either with E2-CDS or HPβCD (controls) were carried out daily for 5 days beginning 2 days prior to the first day of behavior observations, in a volume of 0.05 ml/100 g body weight.
# An experienced and active male rat was placed in the arena 5 minutes prior to the female. […] The lordosis quotient (LQ) expresses the estrogen effect on sexual receptivity and was calculated as follows: LQ=100×number of lordoses/10 mounts The observation of the sexual behavior of each female was carried out, in the case of E2-CDS, every day for 22 days; in the case of EB, investigations were carried out every day for 10 days. […] Citrated blood samples were taken by retro-orbital sinus puncture under light ether anesthesia. […] Plasma LH concentrations from individual samples were measured by double antibody radioimmunoassay kits obtained from Amersham Pharmacia Biotech, Rome, Italy. […]
# [1] = system: ovariectomized female rats; assay: Lordosis behavior test (lordosis quotient) in ovariectomized female rats; assay type: in vivo, rat
# Experimental: Thus, lordosis was selected as an indicator of restoration of female sexual function in ovariectomized female rats and an appropriate indicator for alleviating symptoms of female sexual dysfunction.
# Adult female Sprague Dawley rats (220-250 g) from Charles River Hungary Ltd., Godollo, Hungary, were used. Animals were kept in community cages (4 animals/cage) in a climate-controlled room (23±2° C., 50-60% humidity), with a 14 hour light, 10 hour dark cycle of artificial lighting, using reversed light/dark cycle. Food and water were available ad libitum.
# After a minimum five-day acclimatization period, animals were ovariectomized under ether anesthesia, then were left to recover for 3 weeks before testing (reconvalescence). All animals were treated in accordance with the guidelines of the European Communities Council Directive (86/609/EEC) and studies were permitted by the Institutional Animal Care Commission.
# Estradiol benzoate and progesterone were obtained from Sigma Chemical Co. Inc., Budapest, Hungary. […] E2-CDS as a 3% complex with HPβCD (E2-CDS-CD) was dissolved in distilled water and diluted with 27% HPβCD solution. E2-CDS-CD was synthesized by Alchem Laboratories Corporation, Alachua, Fla., US.
# as §1
# The behavior test was conducted in a plexiglass observation cage during the dark cycle. During behavioral observations, only a dim red light was on.
# An experienced and active male rat was placed in the arena 5 minutes prior to the female. […] The lordosis quotient (LQ) expresses the estrogen effect on sexual receptivity and was calculated as follows: LQ=100×number of lordoses/10 mounts The observation of the sexual behavior of each female was carried out, in the case of E2-CDS, every day for 22 days; in the case of EB, investigations were carried out every day for 10 days. […] Citrated blood samples were taken by retro-orbital sinus puncture under light ether anesthesia. The samples were stored at 4° C. for one hour, then centrifuged at 1000 g for 10 minutes. Plasma was separated and stored at −80° C. until assayed. Plasma LH concentrations from individual samples were measured by double antibody radioimmunoassay kits obtained from Amersham Pharmacia Biotech, Rome, Italy. […] The limit of detection was 15 pg/ml.
# Behavioral changes were analyzed using the Mann-Whitney U test (Siegel, Nonparametric Statistics for the Behavioral Sciences, New York; McGraw-Hill Book Company, Inc., 1956). The Fisher exact test was used for percentage comparisons (Zar, Biostatistical Analysis, Prentice Hall, Inc., Englewood Cliffs, N.J., 1974). Serum LH data were analyzed for each time and treatment group by analysis of variance (ANOVA) followed by Bonferroni posthoc test.
# [2] = estradiol itself, postmenopausal volunteer; cited from earlier work
# [3] = cited from earlier work
# [4] = 0.01 mg/kg i.v. once a day for 5 days
# [5] = 0.03 mg/kg i.v. once a day for 5 days
compound,measurement,setting,value
C[C@]12CC[C@@H]3c4ccc(OC(=O)c5ccccc5)cc4CC[C@H]3[C@@H]1CC[C@@H]2O [estradiol benzoate],masculine sexual behavior,castrated male rats; 10 μg/day systemically for 9 to 11 days (Pfaff 1970),"increased mounting, intromissions and ano-genital sniffing and reduced mounting latency"
same,ejaculations,castrated male rats; 100 μg/day for 24 to 28 days (Sodersten 1973),less affected by estradiol benzoate then by testosterone propionate
same,mounts and intromissions,"castrated male rats; 100 μg/day for 24 to 28 days, rats castrated 6 weeks previously (Sodersten 1973)",equivalent to those observed following similar treatment with testosterone propionate
same,"plasma LH levels, effect",LH,none of the tested dosages of estradiol benzoate gave statistically significant LH suppression
same,"lordosis quotient, effect",[1]; 0.003 mg/kg i.v. once a day for 5 days,"slightly enhanced the lordosis quotient, but these effects were not statistically significant"
same,LQ increase compared to E2-CDS,[1]; [4],about 3 times less
same,"lordosis quotient LQ, effect",[1]; [4],slightly increased the LQ from day 3 to day 10
same,statistical significance of LQ increase,[1]; [4],not statistically significant
same,LQ value relative to E2-CDS,[1]; [5],about three times lower
same,duration of LQ enhancement,[1]; [5],from day 3 to day 8
same,"lordosis quotient LQ, effect",[1]; [5],significantly enhanced
C[C@]12CC[C@@H]3c4ccc(O)cc4CC[C@H]3[C@@H]1CC[C@@H]2O [estradiol],initial serum estradiol level,[2],too high to calculate with the standard curve
C[C@]12CC[C@H]3[C@@H](CCC4=CC(=O)CC[C@@]43C)[C@@H]1CC[C@@H]2O [testosterone],estradiol formed (of recovered steroids),[3]; amygdala (Michael 1986),64%
same,estradiol formed (of recovered steroids),[3]; hypothalamus (Michael 1986),61%
same,radioactivity reported to be estradiol,"[3]; hypothalamus, preoptic area and amygdala (Bonsall 1983)",≥ 50%
same,estradiol formed (of recovered steroids),[3]; preoptic area (Michael 1986),43%
